The record followed here is publication PMC12406253, “Exploration of the Neuromodulatory Properties of Fyn and GSK-3β Kinases Exploiting 7‑Azaindole-Based Inhibitors” (Journal of Medicinal Chemistry, 2025).

Where a name gives a salt, the structure may show the parent alone.

The target of one experiment is human recombinant GSK-3β (Homo sapiens, UniProt P49841). The experiment can be described thus: GSK-3β kinase assay, LANCE Ultra TR-FRET. It counts as biochemical. The note with it: for inhibition at 50 µM: mean ± SD, n.i. = no inhibition. As to the method:
GSK-3β and FYNα kinase assays were run in 384-well microplates (OptiPlate-384, White, PerkinElmer) in a total reaction volume of 20 μL. The inhibitory potency against human recombinant GSK-3β and FYNα (Carna Biosciences) was evaluated using the LANCE Ultra (PerkinElmer) time-resolved fluorescence resonance energy transfer (TR-FRET) by measuring the phosphorylation of the ULight-labeled substrate, according to the manufacturer's instructions. […] Briefly, test compounds and staurosporine (reference compound) or DMSO (control) are mixed with the enzyme (GSK-3β: 2 nM and FYNα: 1 nM) in a buffer containing 50 mM HEPES (pH 7.5), 1 mM EGTA, 10 mM MgCl2, 2 mM DTT, and 0.01% Tween-20. […] Following incubation, the reaction is stopped by adding 6 mM EDTA. After 5 min, the antiphospho antibody labeled with europium chelate is added. After 1 more hour, the kinase reaction is monitored by irradiation at 320 nm and the fluorescence measured at 615 and 665 nm, using EnVision 2014 Multilabel Reader (PerkinElmer). The calculated signal ratio at 665/615 nm is proportional to the extent of ULight-substrate phosphorylation. The compounds were tested at 11 different concentrations ranging from 3 nM up to 100 μM in triplicate. […] The results were expressed as a percent inhibition of the control enzyme activity. Dose-response curves were run in at least three independent experiments, performed in three technical replicates. IC50 values (concentrations causing half-maximal enzyme inhibition) were determined by nonlinear regression analysis of the Log[concentration]/response curves generated with mean replicate values using a four parameter Hill equation curve fitting with GraphPad Prism 8 (GraphPad Software Inc., CA-USA).

A further experiment addresses FYNα (Homo sapiens, UniProt P06241). The experiment can be described thus: FYNα kinase assay, LANCE Ultra TR-FRET. It counts as biochemical. The note with it: for inhibition at 50 µM / Fyn % Inhibition @ 50 μM: mean ± SD, n.i. = no inhibition; for inhibition at 50 µM: read-out: Fyn % Inhibition @ 50 μM; for IC50: mean ± SD of at least three independent determinations, ATP near Km, read-out: Fyn IC50. Here is the method:
GSK-3β and FYNα kinase assays were run in 384-well microplates (OptiPlate-384, White, PerkinElmer) in a total reaction volume of 20 μL. The inhibitory potency against human recombinant GSK-3β and FYNα (Carna Biosciences) was evaluated using the LANCE Ultra (PerkinElmer) time-resolved fluorescence resonance energy transfer (TR-FRET) by measuring the phosphorylation of the ULight-labeled substrate, according to the manufacturer’s instructions. The synthetic peptide surrounding Ser641 of human muscle glycogen synthase (ULight-GS (Ser641/pSer657)) and the synthetic 28-amino acid peptide containing eight Tyr residues placed in different amino acid contexts (ULightTM-TK (PT66)) were selected as specific substrates for GSK-3β and FYNα, respectively. Briefly, test compounds and staurosporine (reference compound) or DMSO (control) are mixed with the enzyme (GSK-3β: 2 nM and FYNα: 1 nM) in a buffer containing 50 mM HEPES (pH 7.5), 1 mM EGTA, 10 mM MgCl2, 2 mM DTT, and 0.01% Tween-20. […] Following incubation, the reaction is stopped by adding 6 mM EDTA. After 5 min, the antiphospho antibody labeled with europium chelate is added. After 1 more hour, the kinase reaction is monitored by irradiation at 320 nm and the fluorescence measured at 615 and 665 nm, using EnVision 2014 Multilabel Reader (PerkinElmer). The calculated signal ratio at 665/615 nm is proportional to the extent of ULight-substrate phosphorylation. The compounds were tested at 11 different concentrations ranging from 3 nM up to 100 μM in triplicate. […] The results were expressed as a percent inhibition of the control enzyme activity.
Dose–response curves were run in at least three independent experiments, performed in three technical replicates. IC50 values (concentrations causing half-maximal enzyme inhibition) were determined by nonlinear regression analysis of the Log[concentration]/response curves generated with mean replicate values using a four parameter Hill equation curve fitting with GraphPad Prism 8 (GraphPad Software Inc., CA-USA).

FYNα, sequence (P06241 whole entry): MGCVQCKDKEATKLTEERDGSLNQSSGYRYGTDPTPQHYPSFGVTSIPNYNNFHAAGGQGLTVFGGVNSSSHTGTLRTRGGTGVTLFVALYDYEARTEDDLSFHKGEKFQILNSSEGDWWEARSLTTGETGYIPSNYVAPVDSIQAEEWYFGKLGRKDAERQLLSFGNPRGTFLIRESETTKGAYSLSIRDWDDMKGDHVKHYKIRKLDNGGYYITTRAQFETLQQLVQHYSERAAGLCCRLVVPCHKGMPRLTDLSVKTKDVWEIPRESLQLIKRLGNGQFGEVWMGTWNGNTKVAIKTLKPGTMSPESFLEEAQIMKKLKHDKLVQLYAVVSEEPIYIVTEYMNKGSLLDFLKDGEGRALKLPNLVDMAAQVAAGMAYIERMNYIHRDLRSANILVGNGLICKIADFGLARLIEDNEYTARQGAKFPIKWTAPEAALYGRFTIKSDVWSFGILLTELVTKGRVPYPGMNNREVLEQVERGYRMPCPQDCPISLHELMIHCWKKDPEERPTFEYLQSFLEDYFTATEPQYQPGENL
human recombinant GSK-3β, sequence (P49841 whole entry): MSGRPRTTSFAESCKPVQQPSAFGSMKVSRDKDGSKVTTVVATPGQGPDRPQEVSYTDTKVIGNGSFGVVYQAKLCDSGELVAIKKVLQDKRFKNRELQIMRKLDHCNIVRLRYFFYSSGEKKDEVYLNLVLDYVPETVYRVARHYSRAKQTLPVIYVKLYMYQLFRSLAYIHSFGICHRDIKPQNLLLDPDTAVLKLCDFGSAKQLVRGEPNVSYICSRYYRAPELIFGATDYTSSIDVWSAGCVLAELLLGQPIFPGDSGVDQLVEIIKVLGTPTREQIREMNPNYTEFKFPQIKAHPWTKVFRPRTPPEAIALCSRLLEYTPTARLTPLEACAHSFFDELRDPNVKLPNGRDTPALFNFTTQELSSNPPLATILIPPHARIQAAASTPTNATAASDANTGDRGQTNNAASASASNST

On to `CNc1nc(-c2c[nH]c3ncccc23)cs1` [Compound 1, N-Methyl-4-(1H-pyrrolo[2,3-b]pyridin-3-yl)thiazol-2-amine Hydrobromide], for which the inhibition at 50 µM on human recombinant GSK-3β came to 65.8%; on FYNα, 22.3%.
As for `Br.CCCCNc1nc(-c2c[nH]c3ncccc23)cs1` [Compound 2, N-Butyl-4-(1H-pyrrolo[2,3-b]pyridin-3-yl)thiazol-2-amine Hydrobromide], the inhibition at 50 µM at human recombinant GSK-3β amounted to 54.9%. For the same molecule, the “Fyn % Inhibition @ 50 μM” value on FYNα was “n.i”.
Turning to `COCCNc1nc(-c2c[nH]c3ncccc23)cs1` [Compound 3, N-(2-Methoxyethyl)-4-(1H-pyrrolo[2,3-b]pyridin-3-yl)thiazol-2-amine Hydrobromide], the inhibition at 50 µM is 58.8% on human recombinant GSK-3β and 41.7% at FYNα.
The like results for `C=CCNc1nc(-c2c[nH]c3ncccc23)cs1` [Compound 4, N-Allyl-4-(1H-pyrrolo[2,3-b]pyridin-3-yl)thiazol-2-amine Hydrobromide] were, in that order, 61.6% and 28.5%.
On to `Br.c1cnc2[nH]cc(-c3csc(NC4CCCCC4)n3)c2c1` [Compound 5, N-Cyclohexyl-4-(1H-pyrrolo[2,3-b]pyridin-3-yl)thiazol-2-amine Hydrobromide], for which the inhibition at 50 µM on human recombinant GSK-3β was determined as 37.4%. The “Fyn % Inhibition @ 50 μM” value at FYNα was “n.i”.
Take `c1ccc(Nc2nc(-c3c[nH]c4ncccc34)cs2)cc1` [Compound 6, N-Phenyl-4-(1H-pyrrolo[2,3-b]pyridin-3-yl)thiazol-2-amine]: the inhibition at 50 µM at FYNα came to 40%.
As for `c1ccc(CNc2nc(-c3c[nH]c4ncccc34)cs2)cc1` [Compound 7, N-Benzyl-4-(1H-pyrrolo[2,3-b]pyridin-3-yl)thiazol-2-amine Hydrobromide], the 50% inhibitory concentration (IC50) on FYNα was 2.04 ± 0.53 µM.
For `Br.c1ccc2c(Nc3nc(-c4c[nH]c5ncccc45)cs3)cccc2c1` [Compound 8, N-(Naphthalen-1-yl)-4-(1H-pyrrolo[2,3-b]pyridin-3-yl)thiazol-2-amine Hydrobromide], the inhibition at 50 µM on human recombinant GSK-3β was 5.1%. Further, the “Fyn % Inhibition @ 50 μM” value on FYNα is “n.i”.
Regarding `Clc1ccccc1Nc1nc(-c2c[nH]c3ncccc23)cs1` [Compound 9, N-(2-Chlorophenyl)-4-(1H-pyrrolo[2,3-b]pyridin-3-yl)thiazol-2-amine Hydrobromide], the figures for the inhibition at 50 µM at human recombinant GSK-3β and at FYNα were 32.7% and 55%, respectively.
Turning to `c1ccc(Nc2nc(-c3c[nH]c4ncccc34)cs2)nc1` [Compound 10, N-(Pyridin-2-yl)-4-(1H-pyrrolo[2,3-b]pyridin-3-yl)thiazol-2-amine Hydrobromide], the inhibition at 50 µM on human recombinant GSK-3β is 24.1%; on FYNα, 3.7%.
With `Br.Cc1ccc(Nc2nc(-c3c[nH]c4ncccc34)cs2)cc1` [Compound 11, 4-(1H-Pyrrolo[2,3-b]pyridin-3-yl)-N-(p-tolyl)thiazol-2-amine Hydrobromide], on human recombinant GSK-3β, the inhibition at 50 µM came to 50.1%. Also, the “Fyn % Inhibition @ 50 μM” value on FYNα was “n.i”.
The corresponding values for `Br.COc1ccc(Nc2nc(-c3c[nH]c4ncccc34)cs2)cc1` [Compound 12, N-(4-Methoxyphenyl)-4-(1H-pyrrolo[2,3-b]pyridin-3-yl)thiazol-2-amine Hydrobromide] are 34.6% and “n.i”.
The corresponding values for `Br.Clc1ccc(Nc2nc(-c3c[nH]c4ncccc34)cs2)cc1` [Compound 13, N-(4-Chlorophenyl)-4-(1H-pyrrolo[2,3-b]pyridin-3-yl)thiazol-2-amine Hydrobromide] are 14.8% and “n.i”.
`CN(C)c1ccc(Nc2nc(-c3c[nH]c4ncccc34)cs2)cc1` [Compound 15, N ^1-(4-(1H-Pyrrolo[2,3-b]pyridin-3-yl)thiazol-2-yl)-N,^4 N ^4-dimethylbenzene-1,4-diamine Hydrobromide]: the inhibition at 50 µM on FYNα came out at 11.4%.
For the molecule `Nc1ccc(Nc2nc(-c3c[nH]c4ncccc34)cs2)cc1` [Compound 16], on FYNα, the inhibition at 50 µM was 42.9%.
As to `COc1ccccc1CNc1nc(-c2c[nH]c3ncccc23)cs1` [Compound 17, N-(2-Methoxybenzyl)-4-(1H-pyrrolo[2,3-b]pyridin-3-yl)thiazol-2-amine Hydrobromide], the concentration for half-maximal inhibition (IC50) at FYNα stood at 7.29 ± 1.03 µM.
The same measure, in the same setting: the result for `Clc1ccccc1CNc1nc(-c2c[nH]c3ncccc23)cs1` [Compound 18, N-(2-Chlorobenzyl)-4-(1H-pyrrolo[2,3-b]pyridin-3-yl)thiazol-2-amine Hydrobromide] reads 5.37 ± 1.29 µM; that for `Clc1cccc(CNc2nc(-c3c[nH]c4ncccc34)cs2)c1` [Compound 19, N-(3-Chlorobenzyl)-4-(1H-pyrrolo[2,3-b]pyridin-3-yl)thiazol-2-amine Hydrobromide], 4.71 ± 0.55 µM.
Take `Br.Clc1ccc(CNc2nc(-c3c[nH]c4ncccc34)cs2)cc1` [Compound 20, N-(4-Chlorobenzyl)-4-(1H-pyrrolo[2,3-b]pyridin-3-yl)thiazol-2-amine Hydrobromide]: the “Fyn % Inhibition @ 50 μM” value at FYNα is given as “n.i”.
For `Fc1ccc(CNc2nc(-c3c[nH]c4ncccc34)cs2)cc1` [Compound 21, N-(4-Fluorobenzyl)-4-(1H-pyrrolo[2,3-b]pyridin-3-yl)thiazol-2-amine Hydrobromide], the concentration for half-maximal inhibition (IC50) on FYNα was determined as 7.1 ± 0.47 µM.
For the molecule `Cc1ccc(CNc2nc(-c3c[nH]c4ncccc34)cs2)cc1` [Compound 22, N-(4-Methylbenzyl)-4-(1H-pyrrolo[2,3-b]pyridin-3-yl)thiazol-2-amine Hydrobromide], the inhibition at 100 µM at human recombinant GSK-3β (read-out: GSK-3β percentage of inhibition at the highest dose tested (100 μM)) turned out to be 77.1%.
For `O=[N+]([O-])c1ccc(CNc2nc(-c3c[nH]c4ncccc34)cs2)cc1` [Compound 24, N-(4-Nitrobenzyl)-4-(1H-pyrrolo[2,3-b]pyridin-3-yl)thiazol-2-amine Hydrobromide], the 50% inhibitory concentration (IC50) at FYNα was 5.21 ± 0.51 µM.
The same measure, in the same setting: under `Nc1ccc(CNc2nc(-c3c[nH]c4ncccc34)cs2)cc1` [Compound 25] stands 18.5 ± 2.49 µM; under `c1cnc(CNc2nc(-c3c[nH]c4ncccc34)cs2)nc1` [Compound 29, N-(Pyrimidin-2-ylmethyl)-4-(1H-pyrrolo[2,3-b]pyridin-3-yl)thiazol-2-amine Hydrobromide], 15 ± 1.26 µM; under `c1cnc2[nH]cc(-c3csc(NCc4cnccn4)n3)c2c1` [Compound 30, N-(Pyrazin-2-ylmethyl)-4-(1H-pyrrolo[2,3-b]pyridin-3-yl)thiazol-2-amine Hydrobromide], 7.39 ± 0.37 µM.
With `c1ccc(CCNc2nc(-c3c[nH]c4ncccc34)cs2)cc1` [Compound 31, N-Phenethyl-4-(1H-pyrrolo[2,3-b]pyridin-3-yl)thiazol-2-amine Hydrobromide], the IC50 at human recombinant GSK-3β (mean ± SD of at least three independent determinations, ATP near Km) was determined as 7.5 ± 1.29 µM.
For the molecule `Br.O=C(Nc1nc(-c2c[nH]c3ncccc23)cs1)c1ccccc1` [Compound 32, N-(4-(1H-Pyrrolo[2,3-b]pyridin-3-yl)thiazol-2-yl)benzamide Hydrobromide], on FYNα, the “Fyn % Inhibition @ 50 μM” value is reported as “n.i”.
Still for that read-out and setting: under `Br.Clc1cccc2c(-c3csc(NCc4ccccc4)n3)c[nH]c12` [Compound 37] stands “n.i”.
Regarding `Brc1cnc2[nH]cc(-c3csc(NCc4ccccc4)n3)c2c1` [Compound 38, N-Benzyl-4-(5-bromo-1H-pyrrolo[2,3-b]pyridin-3-yl)thiazol-2-amine Hydrobromide], the half-maximal inhibitory concentration (IC50) at FYNα amounted to 0.55 ± 0.02 µM.
On to `Cc1sc(NCc2ccccc2)nc1-c1c[nH]c2ncccc12` [Compound 39, N-Benzyl-5-methyl-4-(1H-pyrrolo[2,3-b]pyridin-3-yl)thiazol-2-amine Hydrobromide], for which the IC50 at FYNα was 0.39 ± 0.11 µM.
